{"source": "patent US6656963B2", "about": "“Indole-3-carbinol (I3C) derivatives and methods” (The Regents of the University of California, priority 1997, dated 2003)", "key": {"MCF-7 cells": {"system": "MCF-7 cells", "assay": "Flow cytometry of nuclear DNA content (propidium iodide), cell cycle arrest", "type": "cell-based, human", "conditions": "for percentage of MCF7 cells arrested in G1: I3C, tamoxifen alone or combined", "procedure": "(§1) Particularly suitable assays for I3C derivatives include evaluating their ability to induce a G1 cell cycle arrest and to inhibit CDK6 protein levels in cultured MCF7 breast cancer cells. For the cell proliferative asssays, we have sucessfully employed several methods that we have previously described for rodent mammary tumor cells (44, 51). Briefly, human MCF7 breast cancer cells are cultured at subconfluency in medium supplemented with 10% fetal bovine serum and […] insulin. […] The incorporation of [^3H]thymidine (in a two hour pulse) into 10% trichloroacetic acid precipitable material are used to monitor and quantitate DNA synthesis and provides a direct measure of the proliferative state of the cells.\nTo assess the cell cycle effects of I3C, MCF-7 cells treated with or without 100 μM I3C for 96 hours were hypotonically lysed in the presence of propidium iodide to fluorescently stain the nuclear DNA.\n(§2) Antiproliferative effects of a combination of I3C and the anti-estrogen tamoxifen on breast cancer cell growth: Estrogen receptor (ER)-containing MCF7 or ER-deficient MDA-MB-231 breast cancer cells were treated for 48 hours with 100 μM I3C or 10 μM tamoxifen alone or with a combination of both reagents, and [^3H]thymidine incorporation used as a measure of cell proliferation."}, "CDK4": {"system": "CDK4", "assay": "Western/Northern blot of CDK4 expression", "type": "cell-based, human", "conditions": "same conditions as CDK6 reduction", "procedure": "(§3) Our finding that I3C inhibits the protein levels of the CDK6 cell cycle component provides a unique molecular assay to determine the ability of a given I3C derivative to induce a cell cycle arrest of cancer cells. For example, I3C derivatives may be analyzed by western blot to determine the level of CDK6 protein produced in treated or untreated human MCF7 breast cancer cells. In particular, cells are treated with varying concentrations, varying times alone or in the presence of particular sets of anti-estrogens; treatment with I3C may be used as a positive control. The cell extracts are then electrophoretically fractionated in SDS polyacrylamide gels, blotted onto nitrocellular membranes, the blotted proteins probed with CDK6 antibodies and the CDK6 protein visualized by autoradiography. Other G1 acting cell cycle genes maybe examined to confirm that a given I3C derivative is acting similarly to I3C itself. For example, the levels of the other cyclin dependent kinases (CDK2 and CDK4), cell cycle activators (cyclin D 1, D2, D3 and E) or cell cycle inhibitors (p 15, 16, p21 or p27) that function at discrete times within G1 may be assessed in indole treated or untreated MCF7 breast cancer cells. […]"}, "Ah (dioxin) receptor": {"target": "Ah (dioxin) receptor", "conditions": "cited from earlier work"}, "CDK2": {"system": "CDK2", "assay": "Western/Northern blot of CDK2 expression", "type": "cell-based, human", "conditions": "same conditions as CDK6 reduction", "procedure": "as §3"}, "[1]": {"system": "estradiol 2-hydroxylation", "conditions": "oral, around 500 mg daily for one week, men and women; cited from earlier work"}, "CDK6 [2]": {"system": "CDK6", "assay": "Western and Northern blot of CDK6 in treated breast cancer cells", "type": "cell-based, human", "conditions": "for level of CDK6 protein (Western blot): cells treated with combinations of I3C and/or tamoxifen", "procedure": "For example, I3C derivatives may be analyzed by western blot to determine the level of CDK6 protein produced in treated or untreated human MCF7 breast cancer cells. In particular, cells are treated with varying concentrations, varying times alone or in the presence of particular sets of anti-estrogens; treatment with I3C may be used as a positive control. The cell extracts are then electrophoretically fractionated in SDS polyacrylamide gels, blotted onto nitrocellular membranes, the blotted proteins probed with CDK6 antibodies and the CDK6 protein visualized by autoradiography. […] For example, the levels of the other cyclin dependent kinases (CDK2 and CDK4), cell cycle activators (cyclin D 1, D2, D3 and E) or cell cycle inhibitors (p 15, 16, p21 or p27) that function at discrete times within G1 may be assessed in indole treated or untreated MCF7 breast cancer cells.\nTo determine the mechanism by which I3C induces the G1 cell cycle arrest of human breast cancer cells, Western blot and Northern blot analyses were utilized to examine whether I3C treatment regulates the protein production and transcript expression of the cyclin dependent protein kinases (CDKs), cyclins and CDK Inhibitor components of the cell cycle that function within the G1 phase."}, "[3]": {"system": "human MCF7 breast cancer cells", "conditions": "50 μM, long term treatment (up to six weeks), high density cultures; cited from earlier work"}, "estrogen receptor (ER)": {"system": "estrogen receptor (ER)", "assay": "ERE-vit-CAT reporter plasmid activity in transiently transfected MCF7 cells", "type": "cell-based, human", "conditions": "48 hours; for effect on ERE-vit-CAT activity: estrogen 100 nM", "procedure": "Cancer cells are also treated with combinations of indole-derivatives and either steroidal or nonsteroidal anti-estrogens, such as tamoxifen, ICI 164384 and raloxifene (39, 52), at both suboptimal and optimal doses to determine the ability of a given I3C derivative to syngerize with the anti-estrogens in the growth suppression response. […] For example, MCF7 cells are transiently transfected with the ERE-vit-CAT reporter plasmid, which contains three estrogen responsive elements, and the cells monitored for changes in estrogen regulated CAT activity. For comparison, the effects of the I3C derivatives on growth of the estrogen-non-responsive MDA-MB-231 breast cell line are examined. […] Therefore, purified indole derivatives is also assayed in MCF7 cells for Ah receptor affinity, activation of Ah receptor binding to DNA, and activation of an Ah receptor-responsive CAT reporter (17).\n(§4) I3C effects on estrogen receptor (ER) function was monitored by transient transfection of an ERE-vit-CAT reporter plasmid containing the vitellogenin promoter with three estrogen response elements linked upstream and driving the bacterial chloramphenicol acetyl transferase (CAT) gene."}, "[4]": {"system": "methylnitrosourea-induced mammary tumors", "conditions": "administered prior to and during methylnitrosourea treatment; cited from earlier work"}, "[5]": {"system": "DMBA-induced mammary tumors", "conditions": "administered prior to and during DMBA treatment; cited from earlier work"}, "[6]": {"system": "estrogen receptor-deficient MDA-MB-231 breast cancer cells", "assay": "[3H]thymidine incorporation in estrogen receptor-deficient breast cancer cells", "type": "cell-based, human", "conditions": "for growth inhibitory effect: 48 hours, 100 μM I3C, 10 μM tamoxifen, alone or combined", "procedure": "as §4, §2"}, "[7]": {"system": "spontaneous mammary tumors", "conditions": "cited from earlier work"}, "[8]": {"system": "7,12-dimethyl-benz(α)anthracene (DMBA)-induced mammary tumors", "conditions": "cited from earlier work"}, "p21 cell cycle inhibitor": {"system": "p21 cell cycle inhibitor", "assay": "Western blot of p21 cell cycle inhibitor level", "type": "cell-based, human", "conditions": "only after 72-96 hours of treatment", "procedure": "Western blot analysis has shown that I3C stimulates the level of the p21 cell cycle inhibitor by approximately 3-4 fold only after 72-96 hours of indole treatment, which is when the cells begin to display their maximal cell cycle arrest. This response is not likely to initiate the cell cycle arrest, though provides another useful molecular marker to in the examination of tissue biopsies."}, "[9]": {"conditions": "gastric acid; cited from earlier work"}, "[10]": {"system": "MCF7 human breast cancer cells", "assay": "cells", "conditions": "for cell proliferation: 48 hours", "procedure": "as §1, §2"}, "CDK6 [11]": {"system": "CDK6", "assay": "CDK6 protein expression in estrogen receptor negative cell lines", "type": "cell-based", "procedure": "To determine the mechanism by which I3C induces the G1 cell cycle arrest of human breast cancer cells, Western blot and Northern blot analyses were utilized to examine whether I3C treatment regulates the protein production and transcript expression of the cyclin dependent protein kinases (CDKs), cyclins and CDK Inhibitor components of the cell cycle that function within the G1 phase. […] In particular, CDK6 transcript levels dropped about 30% in 5 hrs and 60% by 15 hours. […] Furthermore, 13C inhibits CDK6 protein expression in estrogen receptor negative cell lines. […] This novel observation provides a basis for a molecular diagnostic assay to determine the sensitivity of a given tumor sample to I3C growth suppression."}, "cell growth": {"system": "cell growth", "assay": "Inhibition of cell growth", "type": "cell-based"}, "cyclin D1": {"system": "cyclin D1", "conditions": "estrogen responsive breast cancer cells; cited from earlier work"}}, "note": "Entries after “also recorded” stand apart in the source; their conditions may differ. Where two headings read alike, the source gives them in different places."}
{"molecule": "OCc1c[nH]c2ccccc12", "note": "[Compound I3C, Indole-3-carbinol]", "values": [{"measurement": "cells remaining with G2/M DNA content", "setting": "MCF-7 cells; 100 μM, 96 hours", "value": "approximately 13%"}, {"measurement": "cells with 2n DNA content (G1 block)", "setting": "MCF-7 cells; 100 μM, 96 hours", "value": 75, "unit": "%"}, {"measurement": "percentage of MCF7 cells arrested in G1", "setting": "MCF-7 cells", "value": 75, "unit": "%"}, {"measurement": "effect on CDK4 expression", "setting": "CDK4", "value": "no effect"}, {"measurement": "Kd", "setting": "Ah (dioxin) receptor", "value": 27, "unit": "µM"}, {"measurement": "effect on CDK2 expression", "setting": "CDK2", "value": "no effect"}, {"measurement": "increase in estradiol 2-hydroxylation", "setting": "[1]", "value": "approximately 50%"}, {"measurement": "time of indole treatment to reduced level of CDK6 protein", "setting": "CDK6 [2]; 48 hours prior to complete cell cycle arrest", "value": "≤ 24", "unit": "h"}, {"measurement": "drop of CDK6 transcript levels", "setting": "CDK6 [2]; by 15 hours", "value": "~60", "unit": "%"}, {"measurement": "level of CDK6 protein (Western blot)", "setting": "CDK6 [2]", "value": "reduced the level of CDK6 protein"}, {"measurement": "drop of CDK6 transcript levels", "setting": "CDK6 [2]; in 5 hrs", "value": "about 30%"}, {"measurement": "estradiol-induced proliferation", "setting": "[3]", "value": "blocked"}, {"measurement": "effect on ERE-vit-CAT activity", "setting": "estrogen receptor (ER)", "value": "no effect"}, {"measurement": "reduction of mammary tumor incidence", "setting": "[4]", "value": "≤ 65", "unit": "%"}, {"measurement": "reduction of mammary tumor incidence", "setting": "[5]", "value": "≤ 95", "unit": "%"}, {"measurement": "growth inhibitory effect", "setting": "[6]", "value": "strong growth suppression effect"}, {"measurement": "inhibition at 100 µM", "setting": "[6]; Homo sapiens, MDA-MB-231, 100 μM, read-out: inhibition of proliferation ([3H]thymidine incorporation)", "value": "> 50", "unit": "%"}, {"measurement": "reduction of spontaneous mammary tumor incidence and multiplicity", "setting": "[7]; diets with 500 or 2000 p.p.m., both doses", "value": "ca. 50%"}, {"measurement": "tumor latency", "setting": "[7]; high dose group", "value": "prolonged"}, {"measurement": "reduction of incidence of DMBA-induced mammary tumors", "setting": "[8]; in the diet or by oral intubation prior to carcinogen", "value": "70-80%"}, {"measurement": "stimulation of p21 level", "setting": "p21 cell cycle inhibitor", "value": "3-4 fold"}, {"measurement": "stability in acidic solution", "setting": "[9]", "value": "extremely unstable"}, {"measurement": "cell morphology", "setting": "[10]; 100 μM", "value": "no morphology change"}, {"measurement": "cell proliferation", "setting": "[10]; 100 μM", "value": "near maximally growth arrested"}, {"measurement": "cell morphology", "setting": "[10]; 300 μM", "value": "changed to a more elongated phenotype"}, {"measurement": "cell proliferation", "setting": "[10]; 300 μM", "value": "maximally inhibited"}, {"measurement": "IC50", "setting": "[10]; Homo sapiens, MCF7, read-out: half-maximal response, inhibition of [3H]thymidine incorporation", "value": 30, "unit": "µM"}, {"measurement": "inhibition at 100 µM", "setting": "[10]; Homo sapiens, MCF7, read-out: inhibition of MCF7 DNA synthesis ([3H]thymidine incorporation) compared to vehicle controls, 48 hours, 100 μM I3C, 10 μM tamoxifen, alone or combined", "value": "~70", "unit": "%"}, {"measurement": "inhibition at 100 µM", "setting": "[10]; Homo sapiens, MCF7, read-out: inhibition of [3H]thymidine incorporation, 100 μM, after 72 hours", "value": 80, "unit": "%"}, {"measurement": "inhibition at 100 µM", "setting": "[10]; Homo sapiens, MCF7, read-out: inhibition of [3H]thymidine incorporation, 100 μM, after 96 hours", "value": "> 90", "unit": "%"}, {"measurement": "cell death", "setting": "[10]; prolonged exposure (5 days)", "value": "did not result in any detectable cell death"}, {"measurement": "reversibility of growth suppression", "setting": "[10]; time course of addition and withdrawal", "value": "completely reversible"}, {"measurement": "rate of [3H]thymidine incorporation after withdrawal", "setting": "[10]; within 48 hours of withdrawal from 48 or 72 hour treated cells", "value": "approximately equivalent to untreated cells"}, {"measurement": "CDK6 protein expression", "setting": "CDK6 [11]", "value": "inhibits"}]}
{"molecule": "c1ccc2c(Cc3c[nH]c4ccccc34)c[nH]c2c1", "note": "[DIM, 3,3′-diindolylmethane]", "values": [{"measurement": "Kd", "setting": "Ah (dioxin) receptor", "value": 0.09, "unit": "µM"}, {"measurement": "reduction of DMBA-induced mammary tumors", "setting": "[8]; in vivo", "value": "highly effective"}, {"measurement": "suppression of MCF7 cell growth", "setting": "[10]; acid products of I3C", "value": "do not suppress growth; also recorded: failed to suppress the growth"}]}
{"molecule": "CC(=O)OCc1cn(C(C)=O)c2ccccc12", "note": "[N,O-diacetyl-indole-3-carbinol]", "values": [{"measurement": "inhibition of cell growth", "setting": "cell growth", "value": "particularly effective inhibitors of cell growth"}]}
{"molecule": "CC/C(=C(\\c1ccccc1)c1ccc(OCCN(C)C)cc1)c1ccccc1", "note": "[tamoxifen]", "values": [{"measurement": "percentage of MCF7 cells arrested in G1", "setting": "MCF-7 cells", "value": 70, "unit": "%"}, {"measurement": "level of CDK6 protein (Western blot)", "setting": "CDK6 [2]", "value": "not"}, {"measurement": "cyclin D1 levels", "setting": "cyclin D1", "value": "reduces"}, {"measurement": "inhibition of basal ERE-vit-CAT reporter plasmid activity", "setting": "estrogen receptor (ER); 10% fetal bovine serum", "value": 70, "unit": "%"}, {"measurement": "growth inhibitory effect", "setting": "[6]", "value": "no growth inhibitory effects"}]}
{"molecule": "estrogen", "values": [{"measurement": "effect on ERE-vit-CAT activity", "setting": "estrogen receptor (ER)", "value": "stimulated"}]}
